The source of these data is ChEMBL document CHEMBL4602695, “Discovery and SARs of 5-Chloro-N4-phenyl-N2-(pyridin-2-yl)pyrimidine-2,4-diamine Derivatives as Oral Available and Dual CDK 6 and 9 Inhibitors with Potent Antitumor Activity” (J Med Chem, 2020).

The source made the active and inactive calls. The rule behind the calls is not given here. A value given as a limit tells only on which side of the number the result lay.

Chain of CDK6/cyclin D3 (P30281 whole entry): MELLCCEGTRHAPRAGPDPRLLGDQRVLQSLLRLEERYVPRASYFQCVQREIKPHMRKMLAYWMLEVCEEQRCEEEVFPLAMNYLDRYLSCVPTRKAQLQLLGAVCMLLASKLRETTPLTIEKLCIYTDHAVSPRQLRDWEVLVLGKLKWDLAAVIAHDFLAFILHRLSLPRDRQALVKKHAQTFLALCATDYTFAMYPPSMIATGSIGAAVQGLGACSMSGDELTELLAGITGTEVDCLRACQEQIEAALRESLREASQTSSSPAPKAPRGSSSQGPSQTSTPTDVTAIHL
Chain of CDK6/cyclin D3 (Q00534 whole entry): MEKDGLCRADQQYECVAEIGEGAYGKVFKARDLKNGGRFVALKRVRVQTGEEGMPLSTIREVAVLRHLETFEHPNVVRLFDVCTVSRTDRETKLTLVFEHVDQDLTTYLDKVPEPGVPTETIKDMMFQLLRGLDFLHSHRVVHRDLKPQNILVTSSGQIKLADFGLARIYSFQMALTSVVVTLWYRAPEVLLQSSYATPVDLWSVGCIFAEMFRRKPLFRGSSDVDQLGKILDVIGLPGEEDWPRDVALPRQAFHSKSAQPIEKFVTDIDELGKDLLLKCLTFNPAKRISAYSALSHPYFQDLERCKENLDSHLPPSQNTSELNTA

The test system of one data set is MDA-MB-231. In words: Antiproliferative activity against human MDA-MB-231 cells assessed as inhibition of cell proliferation measured after 48 hrs by CCK8 assay. The following applies: MDA-MB-231, 48 h. Format: functional, cell-based. A general note: Formazan colour is commonly taken as a measure of viable cells.
On to `Cc1ccccc1Nc1nc(NCc2ccncc2)ncc1Cl`, for which the 50% growth inhibitory concentration (GI50) is over 100 µM.

As for `Cc1ccccc1Nc1nc(Nc2ccc(N3CCN(C(=O)OC(C)(C)C)CC3)cc2)ncc1Cl`, the GI50 worked out at 3.26 µM.

Regarding `CN1CCN(c2ccc(Nc3ncc(Cl)c(NCCc4ccccc4)n3)nc2)CC1`, the GI50 was over 100 µM.

`Cc1ccccc1Nc1nc(Nc2ccccn2)ncc1Cl`: the concentration for 50% growth inhibition (GI50) is 11.2 µM.

Consider `COc1cc(Nc2ncc(Cl)c(Nc3ccccc3C)n2)ccn1`, for which the concentration for 50% growth inhibition (GI50) was found to be 42.6 µM.

Turning to `CCc1ccc(Nc2nc(Nc3ccc(N4CCN(C)CC4)cn3)ncc2Cl)cc1`, the GI50 turned out to be 5.56 µM.

Take `Cc1ccccc1Nc1nc(NCc2ccco2)ncc1Cl`: the concentration for 50% growth inhibition (GI50) was over 100 µM.

For `Cc1ccc(Nc2ncc(Cl)c(Nc3ccccc3C)n2)cc1`, the GI50 is over 100 µM.

In another data set the test system is MCF7. Kind of data set: Antiproliferative activity against human MCF7 cells assessed as inhibition of cell proliferation measured after 48 hrs by CCK8 assay. The following applies: MCF7, 48 h. Format: functional, cell-based.
As to `Cc1ccccc1Nc1nc(NCc2ccncc2)ncc1Cl`, the 50% growth inhibitory concentration (GI50) is over 100 µM.

As to `Cc1ccccc1Nc1nc(Nc2ccc(N3CCN(C(=O)OC(C)(C)C)CC3)cc2)ncc1Cl`, the 50% growth inhibitory concentration (GI50) stood at 2.25 µM.

Consider `CN1CCN(c2ccc(Nc3ncc(Cl)c(NCCc4ccccc4)n3)nc2)CC1`, for which the concentration for 50% growth inhibition (GI50) was 11.8 µM.

Consider `Cc1ccccc1Nc1nc(Nc2ccccn2)ncc1Cl`, for which the GI50 came to 31.4 µM.

For the compound `COc1cc(Nc2ncc(Cl)c(Nc3ccccc3C)n2)ccn1`, the GI50 was over 100 µM.

In the case of `CCc1ccc(Nc2nc(Nc3ccc(N4CCN(C)CC4)cn3)ncc2Cl)cc1`, the GI50 amounted to 8.23 µM.

For the compound `Cc1ccccc1Nc1nc(NCc2ccco2)ncc1Cl`, the concentration for 50% growth inhibition (GI50) is over 100 µM.

For `Cc1ccc(Nc2ncc(Cl)c(Nc3ccccc3C)n2)cc1`, the 50% growth inhibitory concentration (GI50) is over 100 µM.

Test system in the next data set: not listed separately
In words: Cytotoxicity against human L02 cells assessed as inhibition of cell proliferation measured after 48 hrs by CCK8 assay. In kind it is cell-based.
Conditions: not given
As for `Cc1ccccc1Nc1nc(NCc2ccncc2)ncc1Cl`, the GI50 at 48 h was over 100 µM.

Take `Cc1ccccc1Nc1nc(Nc2ccc(N3CCN(C(=O)OC(C)(C)C)CC3)cc2)ncc1Cl`: the GI50 at 48 h turned out to be 1.75 µM.

Regarding `CN1CCN(c2ccc(Nc3ncc(Cl)c(NCCc4ccccc4)n3)nc2)CC1`, the GI50 at 48 h is 14.9 µM.

In the case of `Cc1ccccc1Nc1nc(Nc2ccccn2)ncc1Cl`, the 50% growth inhibitory concentration (GI50) at 48 h came out at 6.15 µM.

For the compound `COc1cc(Nc2ncc(Cl)c(Nc3ccccc3C)n2)ccn1`, the GI50 at 48 h was 18.4 µM.

For `CCc1ccc(Nc2nc(Nc3ccc(N4CCN(C)CC4)cn3)ncc2Cl)cc1`, the GI50 at 48 h was found to be 12.1 µM.

In the case of `Cc1ccccc1Nc1nc(NCc2ccco2)ncc1Cl`, the GI50 at 48 h is over 100 µM.

`Cc1ccc(Nc2ncc(Cl)c(Nc3ccccc3C)n2)cc1`: the GI50 at 48 h is over 100 µM.

In a further data set the target is CDK2/Cyclin A2 (Homo sapiens, UniProt P24941).
Assay: not given
Also on record: species or system Sf9.
Conditions: not given
With `Cc1ccccc1Nc1nc(NCc2ccncc2)ncc1Cl`, the IC50 was over 10 µM.

In turn, `Cc1ccccc1Nc1nc(Nc2ccc(N3CCN(C(=O)OC(C)(C)C)CC3)cc2)ncc1Cl` displayed an IC50 of 0.192 µM.

Consider `CN1CCN(c2ccc(Nc3ncc(Cl)c(NCCc4ccccc4)n3)nc2)CC1`, for which the IC50 was over 10 µM.

In turn, `Cc1ccccc1Nc1nc(Nc2ccccn2)ncc1Cl` registered an IC50 of 0.643 µM.

With `COc1cc(Nc2ncc(Cl)c(Nc3ccccc3C)n2)ccn1`, inhibition was half-maximal at 0.074 µM (IC50).

Consider `CCc1ccc(Nc2nc(Nc3ccc(N4CCN(C)CC4)cn3)ncc2Cl)cc1`, for which the half-inhibitory concentration (IC50) was over 10 µM.

For the compound `Cc1ccccc1Nc1nc(NCc2ccco2)ncc1Cl`, the IC50 is over 10 µM.

With `Cc1ccc(Nc2ncc(Cl)c(Nc3ccccc3C)n2)cc1`, the IC50 was over 10 µM.

The next data set relates to Jurkat. Kind of data set: Antiproliferative activity against human Jurkat cells assessed as inhibition of cell proliferation measured after 48 hrs by CCK8 assay. In kind it is functional, cell-based.
Conditions: not given
On to `Cc1ccccc1Nc1nc(NCc2ccncc2)ncc1Cl`, for which the 50% growth inhibitory concentration (GI50) was over 100 µM.

On to `Cc1ccccc1Nc1nc(Nc2ccc(N3CCN(C(=O)OC(C)(C)C)CC3)cc2)ncc1Cl`, for which the 50% growth inhibitory concentration (GI50) turned out to be 5.12 µM.

As to `CN1CCN(c2ccc(Nc3ncc(Cl)c(NCCc4ccccc4)n3)nc2)CC1`, the GI50 was over 100 µM.

For the compound `Cc1ccccc1Nc1nc(Nc2ccccn2)ncc1Cl`, the GI50 stood at 20.1 µM.

In the case of `COc1cc(Nc2ncc(Cl)c(Nc3ccccc3C)n2)ccn1`, the concentration for 50% growth inhibition (GI50) came to 9.38 µM.

Consider `CCc1ccc(Nc2nc(Nc3ccc(N4CCN(C)CC4)cn3)ncc2Cl)cc1`, for which the GI50 turned out to be 11.1 µM.

Turning to `Cc1ccccc1Nc1nc(NCc2ccco2)ncc1Cl`, the GI50 is over 100 µM.

`Cc1ccc(Nc2ncc(Cl)c(Nc3ccccc3C)n2)cc1`: the GI50 was over 100 µM.

Test system in another data set: not listed separately
In words: Thermodynamic equilibrium solubility in normal saline by HPLC-based shake flask method. Format: physicochemical. Particulars: read-out: Therm_solubility.
Regarding `CC(=O)Nc1cccc(Nc2nc(Nc3ccc(N4CCN(C)CC4)cn3)ncc2Cl)c1.Cl`, the solubility thermodynamic was found to be 3960 µg/mL.

The next data set concerns the target CDK6/cyclin D3 (Homo sapiens, UniProt Q00534).
Assay: not given
Also on record: species or system Sf9.
Conditions: not given
`Cc1ccccc1Nc1nc(NCc2ccncc2)ncc1Cl` yielded an IC50 of over 10 µM.

`Cc1ccccc1Nc1nc(Nc2ccc(N3CCN(C(=O)OC(C)(C)C)CC3)cc2)ncc1Cl` had a half-inhibitory concentration (IC50) of 0.116 µM.

Take `CN1CCN(c2ccc(Nc3ncc(Cl)c(NCCc4ccccc4)n3)nc2)CC1`: the concentration for half-maximal inhibition (IC50) is over 10 µM.

`Cc1ccccc1Nc1nc(Nc2ccccn2)ncc1Cl`: the IC50 was 2.76 µM.

On to `COc1cc(Nc2ncc(Cl)c(Nc3ccccc3C)n2)ccn1`, for which the IC50 is over 10 µM.

`CCc1ccc(Nc2nc(Nc3ccc(N4CCN(C)CC4)cn3)ncc2Cl)cc1` showed a half-maximal inhibitory concentration (IC50) of 0.281 µM.

As to `Cc1ccccc1Nc1nc(NCc2ccco2)ncc1Cl`, the half-maximal inhibitory concentration (IC50) is over 10 µM.

`Cc1ccc(Nc2ncc(Cl)c(Nc3ccccc3C)n2)cc1` came in with an IC50 of over 10 µM.

In the next data set the target is CDK9/Cyclin K (Homo sapiens) (UniProt P50750+O75909).
Assay: not given
Particulars: Sf9.
Turning to `CN1CCN(c2ccc(Nc3ncc(Cl)c(Nc4ccc(OC(F)(F)F)cc4)n3)nc2)CC1`, the inhibition result is “inactive”.

Turning to `CN1CCN(c2ccc(Nc3ncc(Cl)c(Nc4ccc(C(F)(F)F)cc4)n3)nc2)CC1`, the inhibition entry was “inactive”.

Regarding `CN1CCN(c2ccc(Nc3ncc(Cl)c(Nc4cccc(F)c4)n3)nc2)CC1`, the inhibition result is “inactive”.

With `CN1CCN(c2ccc(Nc3ncc(Cl)c(Nc4ccc(F)c(C(F)(F)F)c4)n3)nc2)CC1`, the inhibition entry is “inactive”.

Consider `CN1CCN(c2ccc(Nc3ncc(Cl)c(Nc4ccc(F)cc4)n3)nc2)CC1`, for which the inhibition result was “inactive”.

`CN1CCN(c2ccc(Nc3ncc(Cl)c(Nc4cccc(OC(F)(F)F)c4)n3)nc2)CC1`: the inhibition result is “inactive”.

Test system in the next data set: not listed separately
In words: Thermodynamic equilibrium solubility in water by HPLC-based shake flask method. Format: physicochemical. Particulars: read-out: Therm_solubility.
Take `CC(=O)Nc1cccc(Nc2nc(Nc3ccc(N4CCN(C)CC4)cn3)ncc2Cl)c1.Cl`: the solubility thermodynamic was determined as 7700 µg/mL.

The target of another data set is CDK9/Cyclin K (Homo sapiens, UniProt P50750). In words: biochemical.
Chain of CDK9/Cyclin K (P50750 whole entry): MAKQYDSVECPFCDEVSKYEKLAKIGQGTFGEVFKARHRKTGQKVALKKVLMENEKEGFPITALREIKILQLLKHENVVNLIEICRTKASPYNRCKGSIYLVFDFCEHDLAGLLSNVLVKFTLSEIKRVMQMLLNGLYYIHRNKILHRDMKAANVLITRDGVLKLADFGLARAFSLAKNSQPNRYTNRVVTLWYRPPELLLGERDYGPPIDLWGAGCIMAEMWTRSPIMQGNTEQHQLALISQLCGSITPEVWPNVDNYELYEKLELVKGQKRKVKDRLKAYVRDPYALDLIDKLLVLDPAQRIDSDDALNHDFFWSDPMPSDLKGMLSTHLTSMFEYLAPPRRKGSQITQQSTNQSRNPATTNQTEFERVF
Chain of CDK9/Cyclin K (O75909 whole entry, further chain): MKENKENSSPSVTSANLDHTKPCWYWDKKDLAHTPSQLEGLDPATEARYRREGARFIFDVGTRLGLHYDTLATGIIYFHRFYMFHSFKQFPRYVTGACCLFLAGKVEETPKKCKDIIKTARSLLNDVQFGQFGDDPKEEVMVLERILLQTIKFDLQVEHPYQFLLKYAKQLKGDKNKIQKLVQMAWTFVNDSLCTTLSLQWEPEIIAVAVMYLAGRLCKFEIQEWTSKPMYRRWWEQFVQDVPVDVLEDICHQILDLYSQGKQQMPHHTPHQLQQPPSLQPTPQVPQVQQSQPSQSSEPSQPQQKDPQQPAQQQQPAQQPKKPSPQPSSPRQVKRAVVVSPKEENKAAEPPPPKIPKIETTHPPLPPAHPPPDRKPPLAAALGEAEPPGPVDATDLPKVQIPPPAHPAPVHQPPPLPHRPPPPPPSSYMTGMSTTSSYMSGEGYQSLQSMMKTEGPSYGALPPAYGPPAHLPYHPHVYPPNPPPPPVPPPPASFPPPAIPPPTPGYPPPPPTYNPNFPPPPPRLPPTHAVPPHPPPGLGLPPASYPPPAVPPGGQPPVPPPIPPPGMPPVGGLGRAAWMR
Conditions: not given
As to `Cc1ccccc1Nc1nc(NCc2ccncc2)ncc1Cl`, the half-maximal inhibitory concentration (IC50) is over 10 µM.

Turning to `Cc1ccccc1Nc1nc(Nc2ccc(N3CCN(C(=O)OC(C)(C)C)CC3)cc2)ncc1Cl`, the half-inhibitory concentration (IC50) is 0.176 µM.

In turn, `CN1CCN(c2ccc(Nc3ncc(Cl)c(NCCc4ccccc4)n3)nc2)CC1` displayed an IC50 of over 10 µM.

The compound `Cc1ccccc1Nc1nc(Nc2ccccn2)ncc1Cl` displayed an IC50 of 8.11 to 8.12 µM.

In the case of `COc1cc(Nc2ncc(Cl)c(Nc3ccccc3C)n2)ccn1`, the half-inhibitory concentration (IC50) amounted to 0.908 µM.

With `CCc1ccc(Nc2nc(Nc3ccc(N4CCN(C)CC4)cn3)ncc2Cl)cc1`, the half-inhibitory concentration (IC50) was found to be 6.87 µM.

The compound `Cc1ccccc1Nc1nc(NCc2ccco2)ncc1Cl` came in with a concentration for half-maximal inhibition (IC50) of over 10 µM.

Take `Cc1ccc(Nc2ncc(Cl)c(Nc3ccccc3C)n2)cc1`: the IC50 is over 10 µM.

A word on the GI50: it is the concentration that inhibits growth by half. A word on the IC50: it is the point on the concentration scale where inhibition reaches its midpoint.
